Results: PMC12000319, “Proton conductance by human uncoupling protein 1 is inhibited by purine and pyrimidine nucleotides” (The EMBO Journal, 2025)
“And” between values parts separate entries of the source, which are not always exact repeats. Identical values can stand only once. Like-named read-outs stand apart in the source and are kept apart here.

How the values were obtained:
UCP1 [1] = molecular target: T1, UCP1 (Homo sapiens, UniProt P25874); test: Differential scanning fluorimetry (nanoDSF) thermal stability shift assay; assay type: binding
T1 construct: His8 (N, cleaved yes); Factor Xa protease cleavage site (N, cleaved yes); made in house; host or cells: Saccharomyces cerevisiae strain W303.1B
T1 sequence (P25874 1-307): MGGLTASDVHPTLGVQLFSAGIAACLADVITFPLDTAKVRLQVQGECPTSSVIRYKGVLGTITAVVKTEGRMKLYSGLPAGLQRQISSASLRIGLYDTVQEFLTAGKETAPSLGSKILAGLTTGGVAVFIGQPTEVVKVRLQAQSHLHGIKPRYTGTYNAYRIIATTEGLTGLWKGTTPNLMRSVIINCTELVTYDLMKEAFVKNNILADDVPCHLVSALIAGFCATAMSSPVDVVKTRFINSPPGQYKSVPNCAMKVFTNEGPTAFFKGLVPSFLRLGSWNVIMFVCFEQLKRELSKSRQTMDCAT

human OGC (SLC25A11) = molecular target: T2, human OGC (SLC25A11) (Homo sapiens, UniProt Q02978); test: as above; assay type: binding; settings: 1 mM nucleotide, pH 6.0, single repeats (source data Fig. 4A)
T2 construct: His8 (N, cleaved yes); Factor Xa protease cleavage site (N, cleaved yes); made in house; host or cells: Saccharomyces cerevisiae strain W303.1B
T2 sequence (Q02978 1-314): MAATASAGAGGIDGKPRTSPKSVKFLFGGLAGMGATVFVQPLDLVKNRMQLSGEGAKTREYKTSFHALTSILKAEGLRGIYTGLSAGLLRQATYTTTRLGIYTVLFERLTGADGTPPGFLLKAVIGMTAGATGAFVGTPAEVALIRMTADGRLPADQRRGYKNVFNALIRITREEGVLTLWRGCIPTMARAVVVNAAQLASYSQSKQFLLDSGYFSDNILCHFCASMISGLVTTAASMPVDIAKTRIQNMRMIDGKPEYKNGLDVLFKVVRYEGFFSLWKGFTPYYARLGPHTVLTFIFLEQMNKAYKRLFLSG
Source text: UCP1 is phylogenetically related to mitochondrial dicarboxylate carriers, gaining thermogenic properties as a later evolutionary development (Hughes et al, [2009]; Robinson et al, [2008]). The mitochondrial dicarboxylate carrier (DIC, SLC25A10) and oxoglutarate carrier (OGC, SLC25A11) are most closely related to UCP1 (Gaudry et al, [2019]; Hughes et al, [2009]) and share many residues involved in nucleotide binding in UCP1, such as the arginine triplet at the contact points, R92 and Q85 (Jones et al, [2024]). Given the similarity of the central cavity of UCP1, OGC and DIC, we tested whether the dicarboxylate carriers have the ability to bind nucleotides. For this purpose, we purified human DIC and OGC, and tested whether nucleotides were able to generate a thermostability shift, as observed for their physiological substrates (Pyrihová et al, [2024]). However, all tested nucleotides caused a negligible shift with both DIC or OGC at all pH values tested between 6.0 and 8.0 (Fig. 4A; Appendix Fig. S5). Thus, despite having many residues in common (Fig. 4B–D), UCP1 has evolved to have a few specific residues that allow high-affinity binding of nucleotides without a strong selection for nucleobase.
Differential scanning fluorimetry (nanoDSF) (Alexandrov et al, [2008]) was carried out with 2 µg UCP1, DIC or OGC protein (100 mM MES/HEPES, pH range 6.0–8.0, 25 mM NaCl, 1 mM TCEP, 0.01% lauryl maltose neopentyl glycol and 0.01 mg/mL tetraoleoyl cardiolipin) and, when required, 1 mM nucleotide, as indicated. The proteins have the following number of tryptophans: UCP1 (two); OGC (two); DIC (one). The samples were loaded into nanoDSF-grade standard glass capillaries. The temperature was increased by […] every minute from 25 to 95 °C, the intrinsic fluorescence was measured in a Prometheus NT.48 nanoDSF device, and the apparent Tm was calculated with the PR.ThermControl software (NanoTemper Technologies).

UCP1 [2] = molecular target: T1, UCP1; test: Isothermal titration calorimetry of nucleotide binding; parameters: isotherm data point (enthalpy change per injection): unit not given here; settings: for isotherm data point (enthalpy change per injection): representative isotherm;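 as to all read-outs here: purified human UCP1 in cacodylate buffer with lauryl maltose neopentyl glycol and cardiolipin, titrated with nucleotides, isotherms fitted by one-site model yielding ΔH, Kd and stoichiometry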
UCP1 [3] = molecular target: T1, UCP1; test: Liposome reconstitution and proton conductance assay (pyranine fluorescence); assay type: biochemical; settings: UCP1 proteoliposomes, 200 µM oleic acid + 500 µM nucleotide, 2.5 µM valinomycin; single reconstitutions

Cc1cn([C@H]2C[C@H](O)[C@@H](COP(=O)(O)OP(=O)(O)OP(=O)(O)O)O2)c(=O)[nH]c1=O [dTTP, thymidine triphosphate]
difference in ΔTm versus GTP (UCP1 [1]; 1 mM nucleotide, pH 6.0): 2.7 °C | temperature shift (ΔTm) (UCP1 [1]; 1 mM nucleotide, pH 6.0, detergent-solubilised UCP1, mean of three biological repeats): 18.9 °C | ΔTm at 1000 µM (UCP1 [1]; pH 6, read-out: thermal shift (ΔTm), 1 mM nucleotide, pH 6.0, single repeats (source data Fig. 1D)): 19 °C | ΔTm at 1000 µM (UCP1 [1]; pH 6.5, read-out: thermal shift (ΔTm), 1 mM nucleotide, pH 6.5, single repeats (source data Fig. 1D)): 14.8 °C | ΔTm at 1000 µM (UCP1 [1]; pH 7, read-out: thermal shift (ΔTm), 1 mM nucleotide, pH 7.0, single repeats (source data Fig. 1D)): 10.1 °C | ΔTm at 1000 µM (UCP1 [1]; pH 7.5, read-out: thermal shift (ΔTm), 1 mM nucleotide, pH 7.5, single repeats (source data Fig. 1D)): 4 °C | change in apparent melting temperature (ΔTm) of hOGC (human OGC (SLC25A11)): 0.5 and 0.3 | binding affinity to UCP1 (in words) (UCP1 [2]; ITC): highest binding affinities | Kd (UCP1 [2]; ITC, pH 6.0, 20 °C, mean ± standard deviation of three biological repeats (Fig. 2A-E)): 1130 ± 90 nM | Kd (UCP1 [2]; ITC, single biological repeats (source data Fig. 2F)): 1240 nM and 1090 nM and 1070 nM | isotherm data point (enthalpy change per injection) (UCP1 [2]; Molar ratio (Nucleotide/UCP) 0.120417, pH 6.0, 20 °C): -22.0628 | isotherm data point (enthalpy change per injection) (UCP1 [2]; Molar ratio (Nucleotide/UCP) 0.181226, pH 6.0, 20 °C): -22.1545 | isotherm data point (enthalpy change per injection) (UCP1 [2]; Molar ratio (Nucleotide/UCP) 0.242439, pH 6.0, 20 °C): -21.2571 | isotherm data point (enthalpy change per injection) (UCP1 [2]; Molar ratio (Nucleotide/UCP) 0.304059, pH 6.0, 20 °C): -20.8684 | isotherm data point (enthalpy change per injection) (UCP1 [2]; Molar ratio (Nucleotide/UCP) 0.366087, pH 6.0, 20 °C): -22.682 | isotherm data point (enthalpy change per injection) (UCP1 [2]; Molar ratio (Nucleotide/UCP) 0.428528, pH 6.0, 20 °C): -21.6485 | isotherm data point (enthalpy change per injection) (UCP1 [2]; Molar ratio (Nucleotide/UCP) 0.491383, pH 6.0, 20 °C): -18.3951 | isotherm data point (enthalpy change per injection) (UCP1 [2]; Molar ratio (Nucleotide/UCP) 0.554656, pH 6.0, 20 °C): -20.6625 | isotherm data point (enthalpy change per injection) (UCP1 [2]; Molar ratio (Nucleotide/UCP) 0.618348, pH 6.0, 20 °C): -18.8854 | isotherm data point (enthalpy change per injection) (UCP1 [2]; Molar ratio (Nucleotide/UCP) 0.682464, pH 6.0, 20 °C): -18.4581 | isotherm data point (enthalpy change per injection) (UCP1 [2]; Molar ratio (Nucleotide/UCP) 0.747006, pH 6.0, 20 °C): -16.8767 | isotherm data point (enthalpy change per injection) (UCP1 [2]; Molar ratio (Nucleotide/UCP) 0.811976, pH 6.0, 20 °C): -15.5439 | isotherm data point (enthalpy change per injection) (UCP1 [2]; Molar ratio (Nucleotide/UCP) 0.877378, pH 6.0, 20 °C): -14.5814 | isotherm data point (enthalpy change per injection) (UCP1 [2]; Molar ratio (Nucleotide/UCP) 0.943214, pH 6.0, 20 °C): -11.542 | isotherm data point (enthalpy change per injection) (UCP1 [2]; Molar ratio (Nucleotide/UCP) 1.00949, pH 6.0, 20 °C): -9.131 | isotherm data point (enthalpy change per injection) (UCP1 [2]; Molar ratio (Nucleotide/UCP) 1.0762, pH 6.0, 20 °C): -6.9461 | isotherm data point (enthalpy change per injection) (UCP1 [2]; Molar ratio (Nucleotide/UCP) 1.14336, pH 6.0, 20 °C): -4.409 | isotherm data point (enthalpy change per injection) (UCP1 [2]; Molar ratio (Nucleotide/UCP) 1.21096, pH 6.0, 20 °C): -2.755 | isotherm data point (enthalpy change per injection) (UCP1 [2]; Molar ratio (Nucleotide/UCP) 1.27901, pH 6.0, 20 °C): -1.022 | isotherm data point (enthalpy change per injection) (UCP1 [2]; Molar ratio (Nucleotide/UCP) 1.34751, pH 6.0, 20 °C): -0.7829 | isotherm data point (enthalpy change per injection) (UCP1 [2]; Molar ratio (Nucleotide/UCP) 1.41647, pH 6.0, 20 °C): -1.325 | isotherm data point (enthalpy change per injection) (UCP1 [2]; Molar ratio (Nucleotide/UCP) 1.48589, pH 6.0, 20 °C): -0.8361 | isotherm data point (enthalpy change per injection) (UCP1 [2]; Molar ratio (Nucleotide/UCP) 1.55577, pH 6.0, 20 °C): 0.501 | isotherm data point (enthalpy change per injection) (UCP1 [2]; Molar ratio (Nucleotide/UCP) 1.62611, pH 6.0, 20 °C): 0.6153 | isotherm data point (enthalpy change per injection) (UCP1 [2]; Molar ratio (Nucleotide/UCP) 1.69692, pH 6.0, 20 °C): 0.02513 | isotherm data point (enthalpy change per injection) (UCP1 [2]; Molar ratio (Nucleotide/UCP) 1.76819, pH 6.0, 20 °C): -0.2521 | isotherm data point (enthalpy change per injection) (UCP1 [2]; Molar ratio (Nucleotide/UCP) 1.83995, pH 6.0, 20 °C): 0.8236 | isotherm data point (enthalpy change per injection) (UCP1 [2]; Molar ratio (Nucleotide/UCP) 1.91217, pH 6.0, 20 °C): 0.03383 | isotherm data point (enthalpy change per injection) (UCP1 [2]; Molar ratio (Nucleotide/UCP) 1.98488, pH 6.0, 20 °C): 0.2054 | Proton influx rate (UCP1 [3]): 84.11 nmol H+/min and 42.34 nmol H+/min and 68.93 nmol H+/min
